{
  "source": "patent US20210204549A1",
  "about": "“BACILLUS AMYLOLIQUEFACIENS AND NEONICOTINOIDS MIXTURES AND METHODS OF USE THEREOF” (Valent U.S.A. LLC, priority 2020, published 2021)",
  "system": "tomato spotted wilt virus (\"TSWV\")",
  "experiment": "Greenhouse test of in-furrow treatments on peanut plants infected with tomato spotted wilt virus",
  "format": "in vivo",
  "settings": "peanut plants (Arachis hypogaea), furrow spray; imidacloprid 254.85 g/HA; 63 days after treatment",
  "protocol": "The following greenhouse test was conducted from May 31, 2018 to Oct. 22, 2018 in Tift County, Georgia. Peanut plants (Arachis hypogaea) were used in the test as the crop plant. 6 seeds were planted per foot per row giving 360 seeds per plot. The peanut plants were infected with tomato spotted wilt virus (“TSWV”). Furrows were sprayed with B. amyloliquefaciens strain PTA-4838, imidacloprid, fluopyram and/or Mycorrhizae consortium at the rates disclosed in Table 1 prior to seedling plating. The plants were then infected with TSWV. Number of live plants were counted at 63 days after treatment. Percent TSWV infection was calculated as percent of row feet infected per plot. All data was analyzed using Bartlett's test and with p value of […] for determining significance of the results.",
  "data": [
    {"compound": "O=[N+]([O-])NC1=NCCN1Cc1ccc(Cl)nc1", "note": "[Imidacloprid, imidacloprid]", "values": [
      {"measurement": "% Control", "result": 96.4, "unit": "a %"}
    ]}
  ]
}
